Source: US6303292A, “Immunoreactive polypeptide compositions” (Chiron Corporation, priority 1998, dated 2001)
Entries after “also recorded” stand apart in the source; their conditions may differ.

Tested on: antibodies in the Q1 and Q3 plasma (patient Q)
Test: ELISA on Q1 and Q3 specific 12-mer peptides reacted with Q1 and Q3 plasma
Type: binding, human
Conditions: for binding of plasma to the peptide versus background binding to a panel of 12 randomly chosen control peptides (Student's Test): Q1/Q3 plasma
Protocol: Polystyrene plates (Nunc immuno plate maxisorb F96) were coated with streptavidin by incubating overnight at 4° C. with 0.1 ml/well of a 5 μg/ml solution of streptavidin (Sigma Cat. No. S4762) in 0.1 M carbonate buffer at pH 9.6. After removal of the streptavidin solution, the wells were washed four times with a 0.1% solution of Tween 20 in PBS. Nonspecific binding was blocked by incubating each well with 0.2 ml of 2% BSA in PBS for 1 h at 20° C. The wells were again washed four times with PBS/Tween 20. Plates were air-dried and stored at 4° C. until required. The streptavidin in each well was coupled to cleaved peptides by incubation with 100 μl of a 1:100 dilution of cleaved peptide solution with 0.1% BSA in PBS containing 0.1% sodium azide for 1 h at 20° C. After incubation, the plate was washed four times with PBS/Tween 20. Each well was incubated with 100 μl of a suitable dilution of serum (diluted with 2% BSA in PBS containing 0.1% sodium azide) for 1 h at 20° C. or overnight at 4° C. followed by four washes with PBS/Tween 20. Bound antibody was detected by reaction for 1 h at 20° C. in 0.1 ml conjugate. This consisted of 0.25 ml/l (a saturating level) of horseradish peroxidase-labeled goat anti-rabbit IgG (H+L) (Kirkegaard and Perry Labs, Gaithersburg, Md.) in CASS (0.1% sheep serum, 0.1% Tween 20, 0.1% sodium caseinate diluted in 0.1M PBS, pH 7.2). The wells were washed 2 times with PBS/Tween 20 followed by two washes with PBS only. The presence of enzyme was detected by reaction for 45 min at 20° C. with 0.1 ml of a freshly-prepared solution containing 50 mg of ammonium 2,2'azino-bis[3-ethylbenzothiazoline-6-sulphonate (ABTS, Boehringer Mannheim Cat. no. 122661) and 0.03 ml of 35% (w/w) hydrogen peroxide solution in 100 ml of 0.1 M phosphate/0.08 M citrate buffer, pH 4.0. Color development was measured in a Titertek Multiscan MC plate reader in the dual wavelength mode at 405 nm against a reference wavelength of 492 nm.
To examine the effect of the amino acid substitutions observed in the Q1 and Q3 E2 HV domains on antibody binding, we synthesized a Q1 and Q3 specific 12-mer peptide from amino acids 396 to 407 (HVE Q1 or Q3 in FIG. 7B) and separately reacted the Q1 and Q3 plasma with each peptide in an ELISA.

Sequence | binding of plasma to the peptide versus background binding to a panel of 12 randomly chosen control peptides (Student's Test) | Elisa Results on 12-mer Peptides, Mean (Q1 plasma) | Elisa Results on 12-mer Peptides, Mean (Q3 plasma) | reaction of antibodies in patient Q plasma with the peptide in ELISA (Q1 and Q3 plasma, peptides amino acids 396-407)
TAGFVRLFETGP [Q3 peptide, Q3 specific 12-mer peptide from amino acids 396 to 407 of the HCV E2/NS1 HV domain] | not statistically significant | 0.691 | 0.693 | 
TARFAGFFQSGA [Q1 peptide, Q1 specific 12-mer peptide from amino acids 396 to 407 of the HCV E2/NS1 HV domain] | significantly above background binding | 1.158 | 1.022 | reacted with the Q1 peptide; also recorded: developed an antibody response to the Q1 peptide
